A value given as a limit tells only on which side of the number the result lay.

For one assay, the target named is T1, CDK7 (Homo sapiens, UniProt P50613).
T1 construct: purchased Carna Biosciences, Inc. 04-108
The experiment in a line: CDK7 enzyme inhibition test. The format is biochemical. As to conditions: Ki=IC50/(1+S/Km); 33P bound to MBP, [γ-33P]ATP, 30° C. for 20 minutes; read-out: Ki value of CDK7 inhibitory activity. On the procedure: CDK7 Enzyme Inhibition Test
The preparation of a buffer solution was performed by mixing a N-2-hydroxyethylpiperazine-N′-2-ethanesulfonic acid buffer solution (HEPES buffer solution) (pH 7.4), dithiothreitol (DTT), Triton X-100, and magnesium chloride (MgCl2). A 500 μM [γ-^33P]ATP solution was used by diluting a 10 mM ATP solution and a commercially available [γ-^33P]ATP solution (manufactured by PerkinElmer, Inc., Code No. NEG-302H) with the buffer solution. A CDK7 solution was used by diluting commercially available CDK7 (manufactured by Carna Biosciences, Inc., Catalog No. 04-108) with the buffer solution. A substrate solution was used by diluting myelin basic protein (MBP) with the buffer solution. As for the preparation of a reaction solution, the buffer solution, the 500 μM [γ-^33P]ATP solution, the CDK7 solution, and the substrate solution were mixed at 4° C. to obtain a reaction solution.
CDK7 enzyme reaction was performed by adding 5 μL of a test compound solution prepared with 10% dimethyl sulfoxide (DMSO)/90% injectable distilled water, and 45 μL of the reaction solution to a 1.5 mL microtube at 4° C. and reacting in the microtube at 30° C. for 20 minutes in a water bath incubator. After the reaction, a 10% aqueous trichloroacetic acid (TCA) solution was added to each microtube while cooled to 4° C., and mixed to terminate the reaction. The resultant was left standing at 4° C. for 10 minutes and then centrifuged in a centrifuge, and the supernatant was discarded. Next, a 2% aqueous TCA solution was added, mixed, and then centrifuged in a centrifuge, and the supernatant was discarded. This washing operation was performed twice. After the washing, precipitates were dissolved in a 1 N aqueous sodium hydroxide (NaOH) solution, and the energy quantity (radioactivity) of the reaction product was measured with a liquid scintillation counter.
The calculation of the inhibitory activity of the test compound against CDK7 was performed as a test compound concentration inhibiting 50% of the amount of ^33P bound to MBP (IC50 value) by using EXSUS (version 8.0.0 or version 8.0.1, manufactured by CAC Exicare Corp.).
The calculation of a Ki value was performed according to the following calculation expression. S means the concentration of ATP contained in the reaction solution, and Km means a Michaelis-Menten constant. Ki=IC50/(1+S/Km)

Assay [1] deals with human large intestine cancer cell line (HCT-116). The assay can be described thus: Human large intestine cancer (HCT-116) cell growth inhibition test. The conditions noted are these: 72 h, HCT-116, culture for 3 days, sulforhodamine B absorbance. Format: cell-based. Here is the method:
Human Large Intestine Cancer (HCT-116) Cell Growth Inhibition Test
The measurement of a human large intestine cancer cell growth inhibitory effect was carried out by modifying the method of Simak et al. (Cancer Research, 69, 6208 (2009)).
A human large intestine cancer cell line (HCT-116) (manufactured by DS Pharma Biomedical Co., Ltd., Cat. No. EC91091005) was cultured in McCoy's 5a (manufactured by GIBCO/Thermo Fisher Scientific, Inc., REF. 16600-082) medium containing 10% FBS (manufactured by GIBCO/Thermo Fisher Scientific, Inc., REF. 10082-147) and 1% penicillin/streptomycin/amphotericin B (manufactured by GIBCO/Thermo Fisher Scientific, Inc., REF. 15240-096) and inoculated at 1.0×10^3 cells/well in a 96-well plate (manufactured by Corning Inc., REF. 353072). After overnight culture in a carbon dioxide incubator, it was replaced with a fresh McCoy's 5a medium containing 10% FBS on the next day, and a test compound dissolved in DMSO (manufactured by Wako Pure Chemical Industries, Ltd., Code No. 043-07216) (final DMSO concentration: 0.1%) was added and left standing in a carbon dioxide incubator. After culturing for 3 days, the absorbance of each well was measured by using In Vitro Toxicology Assay Kit Sulforhodamine B based (manufactured by Sigma-Aldrich Co. LLC., Pcode 1001910706).
The rate of inhibition of cell growth at each concentration was calculated from the test compound concentration and the absorbance of sulforhodamine B, and the concentration of the test compound necessary for inhibiting 50% of cell growth (IC50 value) was calculated by using EXSUS (version 8.0.0 or version 8.0.1, manufactured by CAC Exicare Corp.).

T1 sequence (P50613 whole entry): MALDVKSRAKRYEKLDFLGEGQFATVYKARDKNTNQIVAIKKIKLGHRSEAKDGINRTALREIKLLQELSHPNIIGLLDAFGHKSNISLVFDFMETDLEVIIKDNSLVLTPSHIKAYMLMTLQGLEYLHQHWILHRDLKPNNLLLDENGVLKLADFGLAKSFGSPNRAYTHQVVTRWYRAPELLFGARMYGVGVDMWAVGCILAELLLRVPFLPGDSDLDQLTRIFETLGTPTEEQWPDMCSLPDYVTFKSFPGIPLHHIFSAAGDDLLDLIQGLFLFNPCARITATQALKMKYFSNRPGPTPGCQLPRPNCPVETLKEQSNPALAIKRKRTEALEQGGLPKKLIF
T1 sequence (P51946 whole entry partner): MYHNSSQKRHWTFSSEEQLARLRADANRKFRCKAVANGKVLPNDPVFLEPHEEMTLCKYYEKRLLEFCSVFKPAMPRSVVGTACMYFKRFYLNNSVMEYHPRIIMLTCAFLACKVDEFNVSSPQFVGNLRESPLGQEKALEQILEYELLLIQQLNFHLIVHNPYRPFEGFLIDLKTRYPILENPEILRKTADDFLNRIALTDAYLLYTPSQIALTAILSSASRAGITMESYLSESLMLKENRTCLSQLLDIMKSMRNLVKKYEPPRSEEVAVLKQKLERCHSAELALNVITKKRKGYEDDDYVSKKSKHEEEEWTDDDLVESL
T1 sequence (P51948 whole entry partner): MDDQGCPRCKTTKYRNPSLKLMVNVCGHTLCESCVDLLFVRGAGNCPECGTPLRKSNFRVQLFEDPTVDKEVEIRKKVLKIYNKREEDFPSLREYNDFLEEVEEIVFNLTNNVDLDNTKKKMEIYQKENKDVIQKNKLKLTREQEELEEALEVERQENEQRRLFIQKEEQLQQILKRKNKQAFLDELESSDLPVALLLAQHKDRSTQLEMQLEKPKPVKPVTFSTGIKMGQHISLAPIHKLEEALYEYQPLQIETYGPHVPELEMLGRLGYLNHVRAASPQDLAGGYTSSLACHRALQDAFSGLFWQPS

On to `CC1(C)c2[nH]nc(NC(=O)C3([Si](C)(C)C)CCC3)c2CN1C(=O)NC(CO)c1cccnc1` (centres unmarked) [IV-542, N-[2-Hydroxy-1-(pyridin-3-yl)ethyl]-6,6-dimethyl-3-[1-(trimethylsilyl)cyclobutanecarboxamido]-4,6-dihydropyrrolo[3,4-c]pyrazole-5(1H)-carboxamide], for which the Ki (in general, a dissociation constant, usually derived from enzyme kinetics or from competition with a known ligand) at CDK7 is not above 50 nM.

On to `CN(C)CC(Oc1ccccc1)C(=O)N1Cc2c(NC(=O)C3([Si](C)(C)C)CCC3)n[nH]c2C1(C)C` (centres unmarked) [IV-1372, N-{5-[3-(Dimethylamino)-2-phenoxypropanoyl]-6,6-dimethyl-1,4,5,6-tetrahydropyrrolo[3,4-c]pyrazol-3-yl}-1-(trimethylsilyl)cyclobutanecarboxamide], for which, at CDK7, the Ki is not above 50 nM.

Take `COC(C(=O)N1Cc2c(NC(=O)C3([Si](C)(C)C)CCC3)n[nH]c2C1(C)C)c1cccs1` (single isomer, unassigned; (+)) [IV-1547, (+)-N-{5-[2-Methoxy-2-(thiophen-2-yl)acetyl]-6,6-dimethyl-1,4,5,6-tetrahydropyrrolo[3,4-c]pyrazol-3-yl}-1-(trimethylsilyl)cyclobutanecarboxamide]: the Ki on CDK7 is not above 50 nM.

Consider `CC(C)[C@@H](CC(C)(C)O)NC(=O)N1Cc2c(NC(=O)C3([Si](C)(C)C)CCC3)n[nH]c2C1(C)C` [IV-815, (R)—N-(5-Hydroxy-2,5-dimethylhexan-3-yl)-6,6-dimethyl-3-[1-(trimethylsilyl)cyclobutanecarboxamido]-4,6-dihydropyrrolo[3,4-c]pyrazole-5(1H)-carboxamide], for which the IC50 (as a rule, the concentration that inhibits the measured activity by half) in assay [1] was not above 500 nM. Besides, the Ki at CDK7 is not above 50 nM.

In the case of `CC1(C)c2[nH]nc(NC(=O)C3([Si](C)(C)C)CCC3)c2CN1C(=O)NC(c1ccccc1)C(F)(F)CO` (racemic) [IV-362, N-(2,2-Difluoro-3-hydroxy-1-phenylpropyl)-6,6-dimethyl-3-[1-(trimethylsilyl)cyclobutanecarboxamido]-4,6-dihydropyrrolo[3,4-c]pyrazole-5(1H)-carboxamide], in assay [1], the IC50 is not above 500 nM. The Ki on CDK7 is not above 50 nM.

For the compound `CC1(C)c2[nH]nc(NC(=O)C3([Si](C)(C)C)CCC3)c2CN1C(=O)N[C@@H](CO)Cc1ccccc1` [IV-861, (R)—N-(1-Hydroxy-3-phenylpropan-2-yl)-6,6-dimethyl-3-[1-(trimethylsilyl)cyclobutanecarboxamido]-4,6-dihydropyrrolo[3,4-c]pyrazole-5(1H)-carboxamide], the IC50 in assay [1] is not above 500 nM.

Compound `CC(Oc1cccc(Cl)c1)C(=O)N1Cc2c(NC(=O)C3([Si](C)(C)C)CCC3)n[nH]c2C1(C)C` (centres unmarked) [IV-1268, N-{5-[2-(3-Chlorophenoxy)propanoyl]-6,6-dimethyl-1,4,5,6-tetrahydropyrrolo[3,4-c]pyrazol-3-yl}-1-(trimethylsilyl)cyclobutanecarboxamide] came in with an IC50 in assay [1] not above 500 nM.

`COC(C)C(=O)N1Cc2c(NC(=O)C3([Si](C)(C)C)CCC3)n[nH]c2C1(C)C` (centres unmarked) [IV-1241, N-[5-(2-Methoxypropanoyl)-6,6-dimethyl-1,4,5,6-tetrahydropyrrolo[3,4-c]pyrazol-3-yl]-1-(trimethylsilyl)cyclobutanecarboxamide] had an IC50 in assay [1] not above 500 nM. On CDK7, the Ki was not above 50 nM.

On to `CC(C)(CO)C(NC(=O)N1Cc2c(NC(=O)C3([Si](C)(C)C)CCC3)n[nH]c2C1(C)C)c1ccccc1` (single isomer, unassigned; (+)) [IV-672, (+)-N-(3-Hydroxy-2,2-dimethyl-1-phenylpropyl)-6,6-dimethyl-3-[1-(trimethylsilyl)cyclobutanecarboxamido]-4,6-dihydropyrrolo[3,4-c]pyrazole-5(1H)-carboxamide], for which the IC50 in assay [1] was not above 500 nM.

In turn, `CC(Oc1cccnc1)C(=O)N1Cc2c(NC(=O)C3([Si](C)(C)C)CCC3)n[nH]c2C1(C)C` (centres unmarked) [IV-1274, N-{6,6-Dimethyl-5-[2-(pyridin-3-yloxy)propanoyl]-1,4,5,6-tetrahydropyrrolo[3,4-c]pyrazol-3-yl}-1-(trimethylsilyl)cyclobutanecarboxamide] returned an IC50 in assay [1] not above 500 nM. Besides, the Ki on CDK7 is not above 50 nM.

In assay [1], `CC1(C)c2[nH]nc(NC(=O)C3([Si](C)(C)C)CCC3)c2CN1C(=O)NC[C@@H](O)c1ccccc1` [IV-787, (S)—N-(2-Hydroxy-2-phenylethyl)-6,6-dimethyl-3-[1-(trimethylsilyl)cyclobutanecarboxamido]-4,6-dihydropyrrolo[3,4-c]pyrazole-5(1H)-carboxamide] yielded an IC50 not above 500 nM. Also, the Ki at CDK7 was not above 50 nM.

As to `CC1(C)c2[nH]nc(NC(=O)C3([Si](C)(C)C)CCC3)c2CN1C(=O)C(Oc1ccccc1)c1ccccc1` (centres unmarked) [IV-1211, N-[6,6-Dimethyl-5-(2-phenoxy-2-phenylacetyl)-1,4,5,6-tetrahydropyrrolo[3,4-c]pyrazol-3-yl]-1-(trimethylsilyl)cyclobutanecarboxamide], the IC50 in assay [1] was not above 500 nM.

As to `CC1(C)c2[nH]nc(NC(=O)C3([Si](C)(C)C)CCC3)c2CN1C(=O)CC(O)c1ccccc1` (centres unmarked) [IV-562, N-[5-(3-Hydroxy-3-phenylpropanoyl)-6,6-dimethyl-1,4,5,6-tetrahydropyrrolo[3,4-c]pyrazol-3-yl]-1-(trimethylsilyl)cyclobutanecarboxamide], in assay [1], the IC50 was not above 500 nM.

On to `COCCC(C(=O)N1Cc2c(NC(=O)C3([Si](C)(C)C)CCC3)n[nH]c2C1(C)C)c1ccccc1` (centres unmarked) [IV-1224, N-[5-(4-Methoxy-2-phenylbutanoyl)-6,6-dimethyl-1,4,5,6-tetrahydropyrrolo[3,4-c]pyrazol-3-yl]-1-(trimethylsilyl)cyclobutanecarboxamide], for which, in assay [1], the half-inhibitory concentration (IC50) was not above 500 nM.

`CC1(C)c2[nH]nc(NC(=O)C3([Si](C)(C)C)CCC3)c2CN1C(=O)CC(CO)c1ccccc1` (centres unmarked) [IV-558, N-[5-(4-Hydroxy-3-phenylbutanoyl)-6,6-dimethyl-1,4,5,6-tetrahydropyrrolo[3,4-c]pyrazol-3-yl]-1-(trimethylsilyl)cyclobutanecarboxamide] came in with an IC50 in assay [1] not above 500 nM.

As for `CCC(O)(CC)C[C@@H](NC(=O)N1Cc2c(NC(=O)C3([Si](C)(C)C)CCC3)n[nH]c2C1(C)C)c1ccccc1` [IV-759, (R)—N-(3-Ethyl-3-Hydroxy-1-phenylpentyl)-6,6-dimethyl-3-[1-(trimethylsilyl)cyclobutanecarboxamido]-4,6-dihydropyrrolo[3,4-c]pyrazole-5(1H)-carboxamide], the IC50 in assay [1] was not above 500 nM.

Regarding `CC(C)(CO)C(NC(=O)N1Cc2c(NC(=O)C3([Si](C)(C)C)CCC3)n[nH]c2C1(C)C)c1cccc(F)c1` (single isomer, unassigned; (-)) [IV-920, (−)-N-[1-(3-Fluorophenyl)-3-hydroxy-2,2-dimethylpropyl]-6,6-dimethyl-3-[1-(trimethylsilyl)cyclobutanecarboxamido]-4,6-dihydropyrrolo[3,4-c]pyrazole-5(1H)-carboxamide], on CDK7, the inhibitory constant (Ki) is not above 50 nM.

Consider `CC(Oc1ccccc1Cl)C(=O)N1Cc2c(NC(=O)C3([Si](C)(C)C)CCC3)n[nH]c2C1(C)C` (centres unmarked) [IV-1266, N-{5-[2-(2-Chlorophenoxy)propanoyl]-6,6-dimethyl-1,4,5,6-tetrahydropyrrolo[3,4-c]pyrazol-3-yl}-1-(trimethylsilyl)cyclobutanecarboxamide], for which the IC50 in assay [1] is not above 500 nM.

The record behind these values is patent US10131679B2, “Substituted dihydropyrrolopyrazole compound” (UBE INDUSTRIES, LTD., priority 2014, dated 2018).
